Columns and labels:
[1] = compound: CC1=CC(=CC=C1)NC2=NC(=CS2)C3=CC=NC=C3 + NC(=O)Nc1cc(-c2cccc(F)c2)sc1C(=O)N[C@H]1CCCNC1 [AZD7762] (partner 0.2 µM); test: relative viability (nuclei count vs DMSO), 5 days (fraction); higher = more cells survive
How it was run: (§1)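 Lung cancer cell lines in 1536-well plates got either a single drug or a fixed anchor-drug dose together with five library-drug doses (not always all listed) in √10 steps, by pin tool, on the day after seeding. Nuclei were counted after 5 days, and relative viability is the treated-to-vehicle ratio of nuclei counts. Values are medians of duplicate plates.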

[2] = compound: CC1=CC(=CC=C1)NC2=NC(=CS2)C3=CC=NC=C3 + CC(=O)Nc1cccc(-n2c(=O)n(C3CC3)c(=O)c3c(Nc4ccc(I)cc4F)n(C)c(=O)c(C)c32)c1 [Trametinib] (partner 0.02 µM); test: as above
How it was run: as §1

Cell Line	relative viability ([1]; first compound 0.08 µM)	relative viability ([1]; first compound 0.253 µM)	relative viability ([1]; first compound 0.8 µM)	relative viability ([1]; first compound 2.53 µM)	relative viability ([1]; first compound 8 µM)	relative viability ([2]; first compound 0.08 µM)	relative viability ([2]; first compound 0.253 µM)	relative viability ([2]; first compound 0.8 µM)	relative viability ([2]; first compound 2.53 µM)	relative viability ([2]; first compound 8 µM)
NCI-H650	0.766	0.896	1.05	0.926	0.999	0.837	1.07	1.04	0.956	0.964
NCI-H661	–	–	–	–	–	0.478	0.583	0.579	0.54	0.48
NCI-H727	0.669	–	0.745	–	0.507	0.422	–	0.439	–	0.405
NCI-H838	0.812	0.924	0.85	0.928	0.829	0.446	0.458	0.443	0.372	0.407
NCI-H1355	0.657	0.654	0.513	0.653	0.558	0.388	0.298	0.275	0.294	0.269
NCI-H1395	0.401	–	0.393	0.352	0.336	0.939	–	0.964	0.724	0.898
NCI-H1437	1.07	1.11	1.1	1.12	1.11	0.439	0.48	0.434	0.274	0.313
NCI-H1648	0.662	0.568	0.676	0.469	0.469	0.353	0.569	0.444	0.471	0.588
NCI-H1650	–	–	–	–	–	0.52	0.319	0.555	0.429	0.333
NCI-H1651	0.5	0.473	0.416	0.426	0.366	0.825	0.795	0.755	0.82	0.794
NCI-H1666	0.766	0.715	0.607	0.548	0.68	0.578	0.728	0.684	0.523	0.6
NCI-H1703	0.121	0.127	0.14	0.148	0.112	–	–	–	–	–
NCI-H1734	0.559	0.554	0.528	0.647	0.558	0.679	0.712	0.677	0.681	0.614
NCI-H1755	0.491	0.418	0.46	0.486	0.376	0.734	0.735	0.612	0.642	0.522
NCI-H1792	0.459	0.529	0.628	0.755	0.524	0.401	0.397	0.379	0.317	0.429
NCI-H1793	0.366	0.487	0.522	0.789	0.407	0.451	0.353	0.348	0.345	0.394
NCI-H1915	0.755	0.665	0.689	0.686	0.667	0.308	0.29	0.27	0.266	0.27
NCI-H1944	0.401	0.552	0.706	0.527	0.47	0.345	0.409	0.39	0.362	0.357
NCI-H1975	0.579	0.532	0.591	0.462	0.439	0.294	0.274	0.335	0.263	0.193

Cell Line	relative viability ([1]; first compound 0.08 µM)	relative viability ([1]; first compound 0.253 µM)	relative viability ([1]; first compound 0.8 µM)	relative viability ([1]; first compound 2.53 µM)	relative viability ([1]; first compound 8 µM)	relative viability ([2]; first compound 0.08 µM)	relative viability ([2]; first compound 0.253 µM)	relative viability ([2]; first compound 0.8 µM)	relative viability ([2]; first compound 2.53 µM)	relative viability ([2]; first compound 8 µM)
NCI-H1993	0.688	0.706	0.641	0.682	0.749	0.514	0.517	0.596	0.348	0.461
NCI-H2009	–	–	–	–	–	0.249	0.271	0.265	0.267	0.278
NCI-H2023	–	–	–	–	–	0.592	0.617	0.429	0.375	0.179
NCI-H2085	0.904	1.01	0.847	0.993	0.575	0.513	0.376	0.428	0.471	0.426
NCI-H2087	1.41	1.29	1.14	1.43	1.17	0.178	0.195	0.246	0.164	0.181
NCI-H2126	0.967	1.09	1.06	0.95	0.981	0.509	0.528	0.426	0.476	0.485
NCI-H2170	0.776	0.829	0.706	0.749	0.521	0.945	0.935	0.833	0.86	0.668
NCI-H2228	–	–	–	–	–	0.418	0.48	0.501	0.44	0.385
NCI-H2342	0.44	0.403	0.505	0.377	0.523	0.686	0.729	0.695	0.74	0.732
NCI-H2347	0.613	0.731	0.699	0.778	0.72	0.289	0.309	0.256	0.29	0.265
NCI-H2405	0.675	0.716	0.667	–	0.664	0.566	0.571	0.591	–	0.552
NCI-H3122	0.946	1.01	1.04	1.04	0.96	0.204	0.25	0.307	0.321	0.414
PC-3 [JPC-3]	0.711	–	1.11	0.712	0.663	0.602	–	0.658	0.606	0.572
PC-14	0.254	0.28	0.383	0.247	0.316	0.591	0.747	0.629	0.647	0.36
RERF-LC-KJ	1.09	0.691	0.775	0.222	0.911	0.953	0.734	0.735	0.703	0.645
SK-LU-1	–	–	–	–	–	0.479	0.492	0.361	0.568	0.351
SK-MES-1	–	–	–	–	–	0.477	0.5	0.457	0.571	0.423
SW 900	0.65	0.576	0.745	0.508	0.26	0.518	0.539	0.913	0.508	0.667
SW 1573	–	–	–	–	–	0.596	0.585	0.741	0.696	0.48
